Measured values reported in PubChem BioAssay AID1918933 (Molecular Pharmacology Branch, DTP, NCI, 2023).
Where “and” joins values, the source holds several entries; their conditions need not be identical. Equal entries are not always repeated.

System: 186277-243-T-J2-PDC complex spheroid viability
Experiment: Anticancer human tumor 186277-243-T-J2-PDC patient-derived colon adenocarcinoma cell line growth inhibition
Settings: for viability, T/C: stronger effect = lower value
Summary of the method: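 Multicellular complex spheroids of tumor cells with human endothelial cells (HUVEC) and mesenchymal stem cells; the LSD1 inhibitor iadademstat was combined with standard-of-care or investigational agents. Top concentration at or near clinical Cmax, half-log dilutions; final DMSO ≤0.25%.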

[1] = curve of first compound, second compound 0.1 µM
[2] = curve of first compound, second compound 0.316 µM
[3] = curve of first compound, second compound 1 µM
[4] = curve of first compound, second compound 3.16 µM
[5] = curve of first compound, second compound 10 µM
[6] = second compound 0.1 µM, first compound 0.000949 µM
[7] = second compound 0.1 µM, first compound 0.003 µM
[8] = second compound 0.1 µM, first compound 0.00949 µM
[9] = second compound 0.1 µM, first compound 0.03 µM
[10] = second compound 0.1 µM, first compound 0.0949 µM
[11] = second compound 0.1 µM, first compound 0.3 µM
[12] = second compound 0.316 µM, first compound 0.000949 µM
[13] = second compound 0.316 µM, first compound 0.003 µM
[14] = second compound 0.316 µM, first compound 0.00949 µM
[15] = second compound 0.316 µM, first compound 0.03 µM
[16] = second compound 0.316 µM, first compound 0.0949 µM
[17] = second compound 0.316 µM, first compound 0.3 µM
[18] = second compound 1 µM, first compound 0.000949 µM
[19] = second compound 1 µM, first compound 0.003 µM
[20] = second compound 1 µM, first compound 0.00949 µM
[21] = second compound 1 µM, first compound 0.03 µM
[22] = second compound 1 µM, first compound 0.0949 µM
[23] = second compound 1 µM, first compound 0.3 µM
[24] = second compound 3.16 µM, first compound 0.000949 µM
[25] = second compound 3.16 µM, first compound 0.003 µM
[26] = second compound 3.16 µM, first compound 0.00949 µM
[27] = second compound 3.16 µM, first compound 0.03 µM
[28] = second compound 3.16 µM, first compound 0.0949 µM
[29] = second compound 3.16 µM, first compound 0.3 µM
[30] = second compound 10 µM, first compound 0.000949 µM
[31] = second compound 10 µM, first compound 0.003 µM
[32] = second compound 10 µM, first compound 0.00949 µM
[33] = second compound 10 µM, first compound 0.03 µM
[34] = second compound 10 µM, first compound 0.0949 µM
[35] = second compound 10 µM, first compound 0.3 µM
[36] = second compound 0.1 µM, first compound 0.949 µM
[37] = second compound 0.1 µM, first compound 3 µM
[38] = second compound 0.316 µM, first compound 0.949 µM
[39] = second compound 0.316 µM, first compound 3 µM
[40] = second compound 1 µM, first compound 0.949 µM
[41] = second compound 1 µM, first compound 3 µM
[42] = second compound 3.16 µM, first compound 0.949 µM
[43] = second compound 3.16 µM, first compound 3 µM
[44] = second compound 10 µM, first compound 0.949 µM
[45] = second compound 10 µM, first compound 3 µM
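Further: 7 day exposure to compounds.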
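Wherever viability, T/C is given: 100% = DMSO vehicle control viability.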

SMILES: CCc1c2c(nc3ccc(O)cc13)-c1cc3c(c(=O)n1C2)COC(=O)[C@]3(O)CC + NC1CCC(NC2CC2c2ccccc2)CC1
- IC50 [1]: 0.00211 µM
- IC50 [2]: 0.00207 µM
- IC50 [3]: 0.00269 µM
- IC50 [4]: 0.00363 µM
- IC50 [5]: 0.00287 µM
- viability, T/C [6]: 63%
- viability, T/C [7]: 40.7%
- viability, T/C [8]: 33.6%
- viability, T/C [9]: 17.5%
- viability, T/C [10]: 1.51%
- viability, T/C [11]: 0.43%
- viability, T/C [12]: 62.7%
- viability, T/C [13]: 42.2%
- viability, T/C [14]: 30.1%
- viability, T/C [15]: 19.3%
- viability, T/C [16]: 1.53%
- viability, T/C [17]: 0.53%
- viability, T/C [18]: 65.7%
- viability, T/C [19]: 43.1%
- viability, T/C [20]: 38.1%
- viability, T/C [21]: 20.4%
- viability, T/C [22]: 1.56%
- viability, T/C [23]: 0.4%
- viability, T/C [24]: 71.2%
- viability, T/C [25]: 49.2%
- viability, T/C [26]: 38.2%
- viability, T/C [27]: 20.8%
- viability, T/C [28]: 1.23%
- viability, T/C [29]: 0.47%
- viability, T/C [30]: 80.1%
- viability, T/C [31]: 44.5%
- viability, T/C [32]: 32.6%
- viability, T/C [33]: 15.5%
- viability, T/C [34]: 1.74%
- viability, T/C [35]: 1.75%

SMILES: CC[C@@]1(O)C(=O)OCc2c1cc1n(c2=O)Cc2cc3c(CN(C)C)c(O)ccc3nc2-1 + NC1CC1c1ccc(-c2cccc(O)c2)cc1
- IC50 [1]: 0.0641 µM
- IC50 [2]: 0.0586 µM
- IC50 [3]: 0.0609 µM
- IC50 [4]: 0.0644 µM
- IC50 [5]: 0.0567 µM
- viability, T/C (second compound 0.1 µM, first compound 0.000316 µM): 117%
- viability, T/C (second compound 0.1 µM, first compound 0.001 µM): 125%
- viability, T/C (second compound 0.1 µM, first compound 0.00316 µM): 153%
- viability, T/C (second compound 0.1 µM, first compound 0.01 µM): 116%
- viability, T/C (second compound 0.1 µM, first compound 0.0316 µM): 74.5%
- viability, T/C (second compound 0.1 µM, first compound 0.1 µM): 34.9%
- viability, T/C (second compound 0.316 µM, first compound 0.000316 µM): 101%
- viability, T/C (second compound 0.316 µM, first compound 0.001 µM): 96.5%
- viability, T/C (second compound 0.316 µM, first compound 0.00316 µM): 139%
- viability, T/C (second compound 0.316 µM, first compound 0.01 µM): 118%
- viability, T/C (second compound 0.316 µM, first compound 0.0316 µM): 71.7%
- viability, T/C (second compound 0.316 µM, first compound 0.1 µM): 31.2%
- viability, T/C (second compound 1 µM, first compound 0.000316 µM): 90.7%
- viability, T/C (second compound 1 µM, first compound 0.001 µM): 108%
- viability, T/C (second compound 1 µM, first compound 0.00316 µM): 127%
- viability, T/C (second compound 1 µM, first compound 0.01 µM): 119%
- viability, T/C (second compound 1 µM, first compound 0.0316 µM): 73.1%
- viability, T/C (second compound 1 µM, first compound 0.1 µM): 32.5%
- viability, T/C (second compound 3.16 µM, first compound 0.000316 µM): 101%
- viability, T/C (second compound 3.16 µM, first compound 0.001 µM): 97.8%
- viability, T/C (second compound 3.16 µM, first compound 0.00316 µM): 119%
- viability, T/C (second compound 3.16 µM, first compound 0.01 µM): 131%
- viability, T/C (second compound 3.16 µM, first compound 0.0316 µM): 76.3%
- viability, T/C (second compound 3.16 µM, first compound 0.1 µM): 33.6%
- viability, T/C (second compound 10 µM, first compound 0.000316 µM): 103%
- viability, T/C (second compound 10 µM, first compound 0.001 µM): 96.4%
- viability, T/C (second compound 10 µM, first compound 0.00316 µM): 123%
- viability, T/C (second compound 10 µM, first compound 0.01 µM): 116%
- viability, T/C (second compound 10 µM, first compound 0.0316 µM): 74%
- viability, T/C (second compound 10 µM, first compound 0.1 µM): 26.7%

SMILES: CC1(C)CCC(CN2CCN(c3ccc(C(=O)NS(=O)(=O)c4ccc(NCC5CCOCC5)c([N+](=O)[O-])c4)c(Oc4cnc5[nH]ccc5c4)c3)CC2)=C(c2ccc(Cl)cc2)C1
- viability, T/C (compound 0.0316 µM): 100% and 109%
- viability, T/C (compound 0.1 µM): 108% and 90.4%
- viability, T/C (compound 0.316 µM): 93% and 94.6%
- viability, T/C (compound 1 µM): 95.7% and 97.7%
- viability, T/C (compound 3.16 µM): 52.1% and 28.3%
- viability, T/C (compound 10 µM): 8.65% and 0.19%
- IC50 (curve of compound): 3.36 µM and 2.21 µM

SMILES: Nc1ccn(C2OC(CO)C(O)C2(F)F)c(=O)n1 (configuration not stated) + NC1CCC(NC2CC2c2ccccc2)CC1
- IC50 [1]: < 0.000949 µM
- IC50 [2]: < 0.000949 µM
- IC50 [3]: < 0.000949 µM
- IC50 [4]: < 0.000949 µM
- IC50 [5]: < 0.000949 µM
- viability, T/C [6]: 25.8%
- viability, T/C [7]: 17.1%
- viability, T/C [8]: 16.5%
- viability, T/C [9]: 15.9%
- viability, T/C [10]: 15.9%
- viability, T/C [11]: 15.1%
- viability, T/C [12]: 22.9%
- viability, T/C [13]: 18.7%
- viability, T/C [14]: 16.2%
- viability, T/C [15]: 15.6%
- viability, T/C [16]: 16.1%
- viability, T/C [17]: 15.6%
- viability, T/C [18]: 26%
- viability, T/C [19]: 18.6%
- viability, T/C [20]: 18.1%
- viability, T/C [21]: 18%
- viability, T/C [22]: 16.8%
- viability, T/C [23]: 16.3%
- viability, T/C [24]: 27.2%
- viability, T/C [25]: 20.5%
- viability, T/C [26]: 20.1%
- viability, T/C [27]: 19.6%
- viability, T/C [28]: 19.2%
- viability, T/C [29]: 15.9%
- viability, T/C [30]: 31.3%
- viability, T/C [31]: 25.1%
- viability, T/C [32]: 25.3%
- viability, T/C [33]: 18.5%
- viability, T/C [34]: 23.3%
- viability, T/C [35]: 20.9%

SMILES: CCN(c1cc(-c2ccc(CN3CCOCC3)cc2)cc(C(=O)NCc2c(C)cc(C)[nH]c2=O)c1C)C1CCOCC1 + NC1CCC(NC2CC2c2ccccc2)CC1
- IC50 [1]: > 3 µM
- IC50 [2]: > 3 µM
- IC50 [3]: > 3 µM
- IC50 [4]: > 3 µM
- IC50 [5]: > 3 µM
- viability, T/C [8]: 108%
- viability, T/C [9]: 94%
- viability, T/C [10]: 108%
- viability, T/C [11]: 116%
- viability, T/C [36]: 105%
- viability, T/C [37]: 110%
- viability, T/C [14]: 112%
- viability, T/C [15]: 102%
- viability, T/C [16]: 110%
- viability, T/C [17]: 112%
- viability, T/C [38]: 113%
- viability, T/C [39]: 113%
- viability, T/C [20]: 122%
- viability, T/C [21]: 121%
- viability, T/C [22]: 108%
- viability, T/C [23]: 111%
- viability, T/C [40]: 111%
- viability, T/C [41]: 102%
- viability, T/C [26]: 110%
- viability, T/C [27]: 115%
- viability, T/C [28]: 107%
- viability, T/C [29]: 117%
- viability, T/C [42]: 121%
- viability, T/C [43]: 111%
- viability, T/C [32]: 105%
- viability, T/C [33]: 94.8%
- viability, T/C [34]: 95.9%
- viability, T/C [35]: 107%
- viability, T/C [44]: 109%
- viability, T/C [45]: 98.3%

SMILES: CCN(c1cc(-c2ccc(CN3CCOCC3)cc2)cc(C(=O)NCc2c(C)cc(C)[nH]c2=O)c1C)C1CCOCC1 + NC1CC1c1ccc(-c2cccc(O)c2)cc1
- IC50 [1]: 2.22 µM
- IC50 [2]: 2.28 µM
- IC50 [3]: 2.19 µM
- IC50 [4]: 2.22 µM
- IC50 [5]: 2.01 µM
- viability, T/C [8]: 92%
- viability, T/C [9]: 113%
- viability, T/C [10]: 113%
- viability, T/C [11]: 112%
- viability, T/C [36]: 123%
- viability, T/C [37]: 28.4%
- viability, T/C [14]: 107%
- viability, T/C [15]: 113%
- viability, T/C [16]: 129%
- viability, T/C [17]: 120%
- viability, T/C [38]: 120%
- viability, T/C [39]: 28.6%
- viability, T/C [20]: 104%
- viability, T/C [21]: 111%
- viability, T/C [22]: 121%
- viability, T/C [23]: 116%
- viability, T/C [40]: 120%
- viability, T/C [41]: 25.8%
- viability, T/C [26]: 106%
- viability, T/C [27]: 113%
- viability, T/C [28]: 111%
- viability, T/C [29]: 108%
- viability, T/C [42]: 124%
- viability, T/C [43]: 27.8%
- viability, T/C [32]: 100%
- viability, T/C [33]: 99.7%
- viability, T/C [34]: 88.4%
- viability, T/C [35]: 107%
- viability, T/C [44]: 103%
- viability, T/C [45]: 23.5%
